# Source: patent US20250195492A1, “USE OF IPTACOPAN FOR THE TREATMENT OF LUPUS NEPHRITIS” (Novartis AG, priority 2022, published 2025)
# Columns and labels:
# alternative pathway = test: Wieslab assay (least sensitive alternative pathway biomarker), FIH trial CLNP023X2101; assay type: in vivo, human; conditions: 200 mg b.i.d.
# Protocol: The study will first investigate the treatment effect of iptacopan 200 mg b.i.d. on top of SoC compared to SoC alone (Part 1). This dose was chosen based on the least sensitive alternative pathway biomarker (Wieslab assay); it ensures >90% target inhibition in more than 70% of individuals, as determined from FIH trial CLNP023X2101. Dose range finding with doses between 10 to 200 mg b.i.d was performed in Phase 2 studies in IgAN, C3G and PNH.
# [1] = Healthy volunteer studies CLNP023X2101 and CLNP023X1102 (SAD and MAD); assay type: in vivo
# PNH patients = test: Phase 2 studies in PNH (CLNP023X2201 add-on to eculizumab, CLNP023X2204 monotherapy); assay type: in vivo, human
# patients with IgAN = test: Phase 2 study in patients with IgAN (CLNP023X2203), interim analysis; assay type: in vivo, human
# patients with C3G = test: Phase 2 study in patients with C3G (CLNP023X2202), interim analysis; assay type: in vivo, human; conditions: 200 mg b.i.d.
# [2] = 102 subjects, SAD 10 to 400 mg, MAD 10 to 200 mg b.i.d. for 2 weeks
# [3] = 200 mg b.i.d., add-on to eculizumab and monotherapy, majority of patients, preliminary data
# [4] = 200 mg b.i.d. compared to placebo
smiles,measurement,setting,value
"CCO[C@H]1CCN(Cc2c(OC)cc(C)c3[nH]ccc23)[C@H](c2ccc(C(=O)O)cc2)C1 [iptacopan, 4-((2S,4S)-(4-ethoxy-1-((5-methoxy-7-methyl-1H-indol-4-yl)methyl)piperidin-2-yl))benzoic acid]",proportion of individuals with >90% target inhibition,alternative pathway,more than 70%
same,target inhibition (Wieslab assay),alternative pathway; reached in more than 70% of individuals,> 90%
same,"deaths, SAEs, AEs leading to study drug discontinuation",[1]; [2],"No deaths, serious adverse events (SAEs), or adverse events (AEs) leading to study drug discontinuation were observed"
same,tolerability,[1]; [2],well tolerated
same,solubility,[1]; as reported from the healthy volunteer studies,high
same,absorption,"[1]; healthy volunteers, SAD/MAD",fast
same,LDH levels,PNH patients; [3],reduction in LDH levels
same,hemoglobin in the absence of RBC transfusions,PNH patients; [3],improvements in hemoglobin
same,hemolysis,"PNH patients; 200 mg b.i.d., preliminary data",control of both intra- and extravascular hemolysis
same,safety and tolerability,PNH patients; both PNH studies,overall safe and well tolerated
same,safety profile,patients with IgAN,overall well-tolerated safety profile
same,UPCR,patients with IgAN; [4],clinically meaningful UPCR reduction
same,eGFR levels,patients with IgAN; [4],stable/improving
same,dose-response effect on UPCR,"patients with IgAN; at 90 days, primary endpoint",statistically significant dose-response effect
same,tolerability,patients with C3G,well-tolerated
same,eGFR,patients with C3G; at 12 weeks,stabilization
same,reduction in UPCR,patients with C3G; at 12 weeks,49%
